Assay results as given in patent US20090221560A1, “Pharmaceutical Formulation” (priority 2005, published 2009).

Assays:
rats [1] = test: Conditioned avoidance response in rats; type: in vivo; conditions: Rattus norvegicus, read-out: ED50, inhibition of conditioned avoidance response
rats [2] = test: Catalepsy induction in rats; type: in vivo; conditions: at the low dose inhibiting conditioned avoidance response
dopamine D-2 receptor = dopamine D-2 receptor (Homo sapiens, UniProt P14416); test: 3H-spiperone binding assay
dopamine D-2 receptor, sequence (P14416 whole entry): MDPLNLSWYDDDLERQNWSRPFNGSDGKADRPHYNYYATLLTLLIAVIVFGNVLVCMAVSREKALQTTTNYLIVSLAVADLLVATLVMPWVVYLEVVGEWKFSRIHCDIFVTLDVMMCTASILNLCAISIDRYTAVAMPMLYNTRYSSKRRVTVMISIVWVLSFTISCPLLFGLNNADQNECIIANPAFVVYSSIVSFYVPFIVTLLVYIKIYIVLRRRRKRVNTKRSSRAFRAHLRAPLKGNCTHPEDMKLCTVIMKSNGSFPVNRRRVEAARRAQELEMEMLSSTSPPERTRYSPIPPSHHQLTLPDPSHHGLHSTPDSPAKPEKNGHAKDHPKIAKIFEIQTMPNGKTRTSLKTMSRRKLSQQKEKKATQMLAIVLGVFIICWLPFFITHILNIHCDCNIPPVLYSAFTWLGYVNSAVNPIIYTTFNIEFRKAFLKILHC
From the text: (§1) In addition, the compound of formula I and of formula II also show good activity in in vitro binding assays involving binding to neural receptors. […] The compounds are also active at the 5-HT-IC receptor.

5-HT-2 receptor = target: T1, 5-HT-2 receptor (Rattus norvegicus, UniProt P14842); test: Displacement of H-spiperone from binding sites in the rat frontal cortex
T1 construct: from tissue; host or cells: rat frontal cortex
T1 sequence (P14842 whole entry): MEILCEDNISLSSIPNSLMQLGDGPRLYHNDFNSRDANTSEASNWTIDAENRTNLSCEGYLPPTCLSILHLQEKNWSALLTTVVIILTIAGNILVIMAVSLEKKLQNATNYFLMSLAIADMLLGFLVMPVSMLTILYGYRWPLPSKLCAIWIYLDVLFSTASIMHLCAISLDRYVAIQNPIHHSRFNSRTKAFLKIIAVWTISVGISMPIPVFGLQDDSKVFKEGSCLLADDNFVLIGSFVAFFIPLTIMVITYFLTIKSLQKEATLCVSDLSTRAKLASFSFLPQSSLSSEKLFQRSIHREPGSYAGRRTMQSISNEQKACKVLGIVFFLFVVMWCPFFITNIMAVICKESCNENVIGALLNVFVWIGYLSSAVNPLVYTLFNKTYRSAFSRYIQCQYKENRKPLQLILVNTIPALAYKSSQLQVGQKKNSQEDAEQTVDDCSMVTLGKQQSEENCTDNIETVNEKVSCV
From the text: as §1

5-HT-IC receptor = target: T2, 5-HT-IC receptor (Homo sapiens, UniProt P28335); test: Activity at the 5-HT-IC receptor; type: binding
T2 sequence (P28335 33-458): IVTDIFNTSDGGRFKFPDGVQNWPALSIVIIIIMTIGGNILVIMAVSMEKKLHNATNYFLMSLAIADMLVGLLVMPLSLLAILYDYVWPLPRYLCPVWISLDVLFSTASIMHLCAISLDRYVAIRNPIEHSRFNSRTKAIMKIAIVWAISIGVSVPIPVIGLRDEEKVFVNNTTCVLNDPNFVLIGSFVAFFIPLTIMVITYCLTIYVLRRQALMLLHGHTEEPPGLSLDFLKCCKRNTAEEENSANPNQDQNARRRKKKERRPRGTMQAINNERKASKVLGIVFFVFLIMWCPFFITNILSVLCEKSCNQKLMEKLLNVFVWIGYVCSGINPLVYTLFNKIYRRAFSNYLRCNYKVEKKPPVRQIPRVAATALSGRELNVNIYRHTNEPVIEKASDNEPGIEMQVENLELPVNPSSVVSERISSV
From the text: as §1

IC50 (dopamine D-2 receptor) | Concentration displacing H-spiperone at the 5-HT-2 receptor (5-HT-2 receptor) | Activity at the 5-HT-IC receptor (5-HT-IC receptor) | SMILES | ED50 (rats [1]) | Catalepsy (rats [2])
< 1000 nM | low nanomolar concentrations | active | CC(=O)N1CCN(C2=Nc3ccccc3Nc3sc(C)cc32)CC1 [formula II, 2-methyl-4-(4-acetyl-1-piperazinyl)-10H-thieno-[2,3-b][1,5]-benzodiazepine] | ~5 mg/kg | without inducing catalepsy
< 1000 nM | low nanomolar concentrations | active | Cc1cc2c(s1)Nc1ccccc1N=C2N1CC[N+](C)(CCl)CC1 [formula I, 2-methyl-4-(4-methyl-4-chloromethyl-1-piperazinyl)-10H-thieno-[2,3-b][1,5]-benzodiazepine] | ~5 mg/kg | without inducing catalepsy
